Measured values taken from patent US10980765B2, “Isothiocyanatostilbenes as a novel method and product for treating cancer” (BOARD OF SUPERVISORS OF LOUISIANA STATE UNIVERSITY AND …, priority 2015, dated 2021).

Legend:
c-Met [1] = target: T1, c-Met (Homo sapiens, UniProt P08581); assay: Western blot of c-Met activation (phospho-c-Met) by HGF in cancer cell lines; format: cell-based; parameters: endogenous in cells; host or cells: DU145, PC3, MDA-MB-231, HCC1806
Method: (§1) Western blot was used to analyze pMet expression. […] Western blot was used to analyze the indicated proteins.
(§2) Western blot was used to analyze the indicated proteins.
as §2
(§3) Western blot analysis: Cells were grown to ˜70% confluency prior to treatment. Cells were serum-starved in serum-free media for 30 minutes prior to treatment in complete media or serum-free media for the indicated times. Cell lysates were collected in Laemmli (125 mM Tris, 4% SDS, 0.01% bromophenol blue, 30% sucrose) containing 0.5% β-mercaptoethanol and boiled ˜8 minutes. Primary antibodies include: phospho-c-Met (Y1234/1235), phospho-Akt (S473), pEGFR […], pIGF-IRβ (Y1135/1136) (Cell Signaling Technology; Beverly, Mass.); α-actin (Sigma-Aldrich), c-Met (C-28) (Life Technologies). Secondary antibodies include: horseradish peroxidase-conjugated anti-rabbit and anti-mouse (GE Healthcare; Pittsburgh, Pa.). ECL 2 was used for chemiluminescent detection (Thermo Scientific; Rockford, Ill.). Densitometry was calculated using ImageJ (NIH).

DU145 cells [2] = assay: Invasion through Matrigel; format: cell-based; settings: indicated concentrations; 33 ng/mL HGF; Matrigel 1:5
Method: (§4) For invasion (FIGS. 4C and 4D), wounded cells were overlaid with Matrigel diluted 1:5 in serum-free media; n=3.
(§5) Wound healing and invasion: DU145 cells were grown to ˜100% confluency prior to wounding with the IncuCyte™ WoundMaker™ (Essen Bioscience; Ann Arbor, Mich.) and washed once with complete media. For invasion, cells were covered with Matrigel diluted 1:5 in serum-free RPMI following wounding. […] Images were taken every 4 hours with the IncuCyte™ ZOOM imaging system (Essen Bioscience). Quadruplicate replicates were used in each experiment. Data are presented as percent wound density ±standard error of the mean (S.E.M.).

wild-type c-Met = wild-type c-Met (Homo sapiens, UniProt P08581); assay: Phosphorylation inhibition assay (Z′-LYTE Kinase Assay-Tyr6 Peptide), wild-type c-Met; format: biochemical
Method: as §1
Phosphorylation inhibition assay: Z′-LYTE™ Kinase Assay-Tyr6 Peptide kit (Invitrogen) was used to assess the ability of tested compounds to inhibit c-Met phosphorylation. […] After 1 hour incubation at room temperature, 10 μl development solution containing site-specific protease was added to each well. Incubation was continued for 1 hour. The reaction was then stopped, and the fluorescent signal ratio of 445 nm (coumarin)/520 nm (fluorescein) was determined on a plate reader (BioTek FLx800™), which reflects the peptide substrate cleavage status and/or the kinase inhibitory activity in the reaction. […] The IC50 value for each compound was calculated by nonlinear regression of log concentration versus % c-Met phosphorylation ±S.E.M., implemented in GraphPad Prism version 5.0 (GraphPad Software, CA, USA).

DU145 cells [3] = assay: Scattering assay; format: cell-based; settings: 4 μM DIDS or 25 μM H2DIDS
Method: (§6) Cells were fixed and stained for actin. Representative images are shown. […] Data are shown as mean±S.E.M.; n=3.
Cells were fixed and stained for actin. Representative images are shown.
Scattering assay: DU145 cells were grown to ˜50% confluency. […] Cells were fixed with 4% paraformaldehyde and stained with Oregon Green 488 phalloidin (Invitrogen; Carlsbad, Calif.). Images were acquired on an Eclipse TE300 inverted microscope (Nikon; Tokyo, Japan) with NIS Elements version 4.13.04 software. Presented images were taken using a 10× objective.

DU145 cells [4] = assay: Wound healing; format: cell-based
Method: as §6, §4, §5

c-Met [5] = target: T1, c-Met; assay: Western blot of pMet in c-Met amplified H1993 lung cancer cells without HGF; format: cell-based; parameters: endogenous in cells; settings: 5 μM compound; no HGF, constitutive c-Met activation
Method: as §1
H1993 cells have c-Met amplification such that they have high levels of pMet, even in the absence of HGF, due to constitutive c-Met dimerization and autophosphorylation.
as §3

Cells = assay: 2D proliferation (Cell Titer Blue); format: cell-based; settings: 24-72 hours
Method: A TO timepoint was also measured. For each timepoint, cells were exposed to Cell Titer Blue reagent (Promega) for 1 hour at 37° C. 5% CO2. Experiments were performed with quadruplicate replicates. Fluorescence was measured using a BioTek Synergy 4 plate reader with Gen5 software.

IGFR = target: T2, IGFR (Homo sapiens, UniProt P08069); assay: Western blot of IGFR activation by IGF in DU145 cells; format: cell-based; settings: 4 μM DIDS or 25 μM H2DIDS; DU145, 100 ng/ml IGF 20 min
T2 construct: endogenous in cells; host or cells: DU145
Method: as §3

EGFR = target: T3, EGFR (Homo sapiens, UniProt P00533); assay: Western blot of EGFR activation by EGF in DU145 cells; format: cell-based; settings: 4 μM DIDS or 25 μM H2DIDS; DU145, 100 ng/ml EGF 20 min
T3 construct: endogenous in cells; host or cells: DU145
Method: as §3

DU145 spheroids = assay: 3D spheroid proliferation; format: cell-based; settings: 33 ng/mL HGF, Matrigel, 72 hours
Method: Data are shown as the percent change in growth from T=0 to T=72 hours. For each of the six independent variables in each bar graph, a representative image at the 72 hour time point is shown. The six corresponding images below each respective bar graph
3D spheroid proliferation: Prior to seeding, cells were incubated with 2.5 ng/μl CellTracker Red (Life Technologies) in complete DMEM lacking Phenol Red for 5 minutes at room temperature then centrifuged at 1000 RPM for 5 minutes. […] The mixture of cells, treatments, and Matrigel in complete media was seeded at 2000 cells/well in a 96 well plate. The plate was centrifuged at 1000 RPM for 3 minutes to collect the cells into the bottom of the plate. Spheroid growth was imaged for up to 80 hours and analyzed for average red object area using the IncuCyte™ ZOOM software. Data are shown as percent change in spheroid growth between TO and […] with HGF normalized to 100% change in growth. Images were captured by the IncuCyte™ ZOOM imaging system and representative 10× images are shown.

wild-type c-Met, sequence (P08581 25-1390): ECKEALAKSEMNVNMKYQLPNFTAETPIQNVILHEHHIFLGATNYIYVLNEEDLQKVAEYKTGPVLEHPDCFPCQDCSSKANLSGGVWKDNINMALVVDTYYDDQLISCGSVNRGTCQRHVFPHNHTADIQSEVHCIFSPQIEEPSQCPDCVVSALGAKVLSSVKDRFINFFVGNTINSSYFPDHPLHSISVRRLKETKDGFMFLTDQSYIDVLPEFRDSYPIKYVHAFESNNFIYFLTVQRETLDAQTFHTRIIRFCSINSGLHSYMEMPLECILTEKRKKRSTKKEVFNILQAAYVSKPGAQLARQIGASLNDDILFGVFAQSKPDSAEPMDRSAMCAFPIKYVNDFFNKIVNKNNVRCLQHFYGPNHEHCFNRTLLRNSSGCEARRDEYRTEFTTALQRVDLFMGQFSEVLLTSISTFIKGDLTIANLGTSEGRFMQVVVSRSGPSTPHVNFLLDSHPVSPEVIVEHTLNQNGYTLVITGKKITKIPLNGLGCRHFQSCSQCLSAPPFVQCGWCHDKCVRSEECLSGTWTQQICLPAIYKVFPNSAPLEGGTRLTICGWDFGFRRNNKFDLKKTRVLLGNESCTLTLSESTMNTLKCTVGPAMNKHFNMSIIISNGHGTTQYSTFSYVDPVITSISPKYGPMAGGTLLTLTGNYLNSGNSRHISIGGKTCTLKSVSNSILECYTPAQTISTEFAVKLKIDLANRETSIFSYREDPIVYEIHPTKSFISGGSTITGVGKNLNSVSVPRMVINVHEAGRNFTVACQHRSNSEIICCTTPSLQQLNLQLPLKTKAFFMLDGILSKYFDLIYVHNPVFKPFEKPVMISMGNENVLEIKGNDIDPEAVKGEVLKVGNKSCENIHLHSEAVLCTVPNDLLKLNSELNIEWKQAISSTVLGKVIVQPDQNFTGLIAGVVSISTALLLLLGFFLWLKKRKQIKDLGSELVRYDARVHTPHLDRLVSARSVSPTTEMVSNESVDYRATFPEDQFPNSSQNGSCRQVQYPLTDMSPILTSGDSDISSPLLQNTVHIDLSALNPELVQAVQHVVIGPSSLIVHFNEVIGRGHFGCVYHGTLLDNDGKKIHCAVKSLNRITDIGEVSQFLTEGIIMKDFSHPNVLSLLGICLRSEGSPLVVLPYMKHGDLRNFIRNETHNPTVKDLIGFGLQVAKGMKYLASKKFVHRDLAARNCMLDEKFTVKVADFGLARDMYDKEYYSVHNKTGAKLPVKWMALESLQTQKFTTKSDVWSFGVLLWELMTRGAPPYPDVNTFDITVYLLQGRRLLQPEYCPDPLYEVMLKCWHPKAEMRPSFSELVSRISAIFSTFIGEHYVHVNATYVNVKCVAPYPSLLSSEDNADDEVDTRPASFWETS
T1 sequence (P08581 25-1390): as above
T3 sequence (P00533 25-1210): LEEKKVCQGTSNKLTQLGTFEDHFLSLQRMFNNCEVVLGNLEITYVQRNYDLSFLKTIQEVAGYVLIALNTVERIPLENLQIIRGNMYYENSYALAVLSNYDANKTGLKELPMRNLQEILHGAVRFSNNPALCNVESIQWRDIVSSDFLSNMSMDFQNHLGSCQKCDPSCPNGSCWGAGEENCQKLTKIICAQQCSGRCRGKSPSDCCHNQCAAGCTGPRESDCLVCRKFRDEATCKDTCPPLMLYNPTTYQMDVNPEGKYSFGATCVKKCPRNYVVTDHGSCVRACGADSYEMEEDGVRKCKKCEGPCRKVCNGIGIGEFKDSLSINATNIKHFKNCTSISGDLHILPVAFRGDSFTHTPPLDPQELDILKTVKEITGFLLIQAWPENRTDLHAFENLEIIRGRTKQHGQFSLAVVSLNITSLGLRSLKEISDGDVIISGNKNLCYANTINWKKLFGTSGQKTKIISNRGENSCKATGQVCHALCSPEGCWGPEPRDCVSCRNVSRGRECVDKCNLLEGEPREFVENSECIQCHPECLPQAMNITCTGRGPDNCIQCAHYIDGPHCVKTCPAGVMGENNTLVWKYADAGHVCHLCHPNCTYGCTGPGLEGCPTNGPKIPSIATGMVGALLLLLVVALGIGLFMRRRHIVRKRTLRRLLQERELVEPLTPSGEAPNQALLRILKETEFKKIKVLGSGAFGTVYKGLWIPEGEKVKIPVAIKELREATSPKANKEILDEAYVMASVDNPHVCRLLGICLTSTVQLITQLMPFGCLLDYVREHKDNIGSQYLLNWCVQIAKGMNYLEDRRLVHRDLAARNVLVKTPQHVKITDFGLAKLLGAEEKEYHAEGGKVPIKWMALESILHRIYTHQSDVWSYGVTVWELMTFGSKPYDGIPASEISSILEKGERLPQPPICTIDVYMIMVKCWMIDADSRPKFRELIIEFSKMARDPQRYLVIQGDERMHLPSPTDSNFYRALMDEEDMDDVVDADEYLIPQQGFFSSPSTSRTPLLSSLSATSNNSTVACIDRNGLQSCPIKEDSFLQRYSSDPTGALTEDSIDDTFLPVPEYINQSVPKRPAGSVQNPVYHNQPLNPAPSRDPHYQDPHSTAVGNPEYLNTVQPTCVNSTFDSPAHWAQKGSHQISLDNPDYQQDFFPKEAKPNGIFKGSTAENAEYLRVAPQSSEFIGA

O=[N+]([O-])c1ccc(C=Cc2ccc([N+](=O)[O-])cc2S(=O)(=O)O)c(S(=O)(=O)O)c1 [DNDS, 4,4′-dinitrostilbene-2,2′-disulfonic acid]
inhibition at 2000 µM (c-Met [1]; DU-145, read-out: inhibition of c-Met): ~90%

O=S(=O)(O)c1cc(N=C=S)ccc1CCc1ccc(N=C=S)cc1S(=O)(=O)O [H2DIDS, 4,4′-Diisothiocyanatodihydrostilbene-2,2′-disulfonic acid]
HGF-induced invasion through Matrigel (DU145 cells [2]): inhibited HGF-induced invasion through Matrigel in a dose-dependent manner | IC50, wild-type c-Met (wild-type c-Met; cell-free kinase assay, 200 μM ATP): low micromolar range | IC50 (wild-type c-Met; cell-free kinase assay, 200 μM ATP, read-out: IC50, wild-type c-Met): 3.6 µM | HGF-induced cell scattering (DU145 cells [3]; 33 ng/ml HGF overnight): able to reduce HGF-induced | EGF-induced cell scattering (DU145 cells [3]; 100 ng/ml EGF overnight): not EGF-induced | reduction of c-Met activation (c-Met [1]; 8 μM compound, DU145 cells, 33 ng/ml HGF 20 min, serum-free, Western blot densitometry): ~90% | effective concentrations for reducing c-Met activation in 10% FBS (c-Met [1]; DU145 cells, 33 ng/ml HGF 20 min, 10% FBS RPMI, compared with serum-free): slightly higher effective concentrations | c-Met inhibitory effective doses (c-Met [1]; multiple cancer cell lines (summary)): low micromolar range | HGF-induced wound healing (DU145 cells [4]; 4 μM DIDS or 25 μM H2DIDS, 33 ng/ml HGF): significantly reduced | EGF-mediated wound healing (DU145 cells [4]; 4 μM DIDS or 25 μM H2DIDS, 100 ng/ml EGF): minimal effects | HGF-induced wound healing, dose response (DU145 cells [4]; indicated concentrations, 33 ng/mL HGF): reduce HGF-induced wound healing in a dose response manner | pMet levels in H1993 cells (c-Met [5]): much less significant effects | proliferation in complete media in 2D assay (Cells; complete media): minimal effects | serum-free proliferation in 2D assay (Cells; serum-free media): minimal effects | IGFR activation (IGFR): do not significantly reduce | EGFR activation (EGFR): do not significantly reduce | lowest concentration with some inhibitory effects on HGF-induced spheroid growth (DU145 spheroids): 40 nM | decrease of HGF-induced DU145 spheroid growth (DU145 spheroids; 5 μM compound): ~60%

CC(=O)Nc1ccc(C=Cc2ccc(N=C=S)cc2S(=O)(=O)O)c(S(=O)(=O)O)c1 [SITS, 4-acetamido-4′-isothiocyanatostilbene-2,2′-disulfonic acid]
inhibition at 250 µM (c-Met [1]; DU-145, 250 μM compound, DU145 cells, 33 ng/ml HGF 20 min, serum-free): ~90%

Cc1[nH]c(/C=C2\C(=O)Nc3ccc(S(=O)(=O)N(C)c4cccc(Cl)c4)cc32)c(C)c1C(=O)N1CCN(C)CC1 [SU11274, reference compound]
reduction of c-Met phosphorylation (wild-type c-Met; 500 nM compound, kinase assay): ~70% | pMet levels in H1993 cells (c-Met [5]): ameliorated pMet levels
